The compounds below were run on HCT116 colorectal cancer cells (assay: Cisplatin sensitization assay (96 h MTS cell viability)). Details: Cisplatin sensitization value.
Assay type: cell-based
Method: Compounds can be screened for their ability to sensitize HCT116 colorectal cancer cells to Cisplatin using a 96 h cell viability (MTS) assay. […] Compounds and Cisplatin are then both added simultaneously to the cell media in 2-fold serial dilutions from a top final concentration of 10 μM as a full matrix of concentrations in a final cell volume of 200 μl, and the cells are then incubated at 37° C. in 5% CO2. After 96 h, 40 μl of MTS reagent (Promega G358a) is added to each well and the cells are incubated for 1 h at 37° C. in 5% CO2.
Compounds with a Cisplatin sensitization value of <0.02 μM are marked with “+++.” Compounds with a Cisplatin sensitization value >0.02 μM but <0.2 μM are marked with “++.” Compounds with a Cisplatin sensitization value >0.2 μM but <5 μM are marked with “+.”
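Also: compound concentration needed to lower the IC50 of Cisplatin alone by a set fold.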

| Structure (SMILES) | Cisplatin Sensitization Assay |
| --- | --- |
| CC1(N2CCN(C(=O)C3CCN(c4c(F)cncc4NC(=O)c4c(N)nn5cc(F)cnc45)CC3)CC2)COC1 [I-G-92, 2-amino-6-fluoro-N-(5-fluoro-4-(4-(4-(3-methyloxetan-3-yl)piperazine-1-carbonyl)piperidin-1-yl)pyridin-3-yl)pyrazolo[1,5-a]pyrimidine-3-carboxamide] | +++ (Compounds with a Cisplatin sensitization value of <0.02 μM are marked with “+++.”) |
| Nc1nn2cc(Cl)cnc2c1C(=O)Nc1cnccc1N1CCC(N2CC(F)(F)C2)CC1 [I-N-108, 2-amino-6-chloro-N-(4-(4-(3,3-difluoroazetidin-1-yl)piperidin-1-yl)pyridin-3-yl)pyrazolo[1,5-a]pyrimidine-3-carboxamide] | +++ (Compounds with a Cisplatin sensitization value of <0.02 μM are marked with “+++.”) |
| Nc1nn2cc(F)cnc2c1C(=O)Nc1cncc(F)c1N1CCC(C(=O)N2CC(F)(F)C2)CC1 [I-G-73, 2-amino-N-(4-(4-(3,3-difluoroazetidine-1-carbonyl)piperidin-1-yl)-5-fluoropyridin-3-yl)-6-fluoropyrazolo[1,5-a]pyrimidine-3-carboxamide] | +++ (Compounds with a Cisplatin sensitization value of <0.02 μM are marked with “+++.”) |
| Nc1nn2cc(Cl)cnc2c1C(=O)Nc1cnccc1OCCN1CCOCC1 [I-O-60, 2-amino-6-chloro-N-(4-(2-morpholinoethoxy)pyridin-3-yl)pyrazolo[1,5-a]pyrimidine-3-carboxamide] | ++ (Compounds with a Cisplatin sensitization value >0.02 μM but <0.2 μM are marked with “++.”) |
| Cn1ccc2cncc(NC(=O)c3c(N)nn4cc(F)cnc34)c21 [I-N-259, 2-amino-6-fluoro-N-(1-methyl-1H-pyrrolo[3,2-c]pyridin-7-yl)pyrazolo[1,5-a]pyrimidine-3-carboxamide] | + (Compounds with a Cisplatin sensitization value >0.2 μM but <5 μM are marked with “+.”) |
| CC1(O)CN(C(=O)C2CCN(c3c(F)cncc3NC(=O)c3c(N)nn4cc(F)cnc34)CC2)C1 [I-G-63, 2-amino-6-fluoro-N-(5-fluoro-4-(4-(3-hydroxy-3-methylazetidine-1-carbonyl)piperidin-1-yl)pyridin-3-yl)pyrazolo[1,5-a]pyrimidine-3-carboxamide] | +++ (Compounds with a Cisplatin sensitization value of <0.02 μM are marked with “+++.”) |
| Nc1nn2cc(F)cnc2c1C(=O)Nc1cncc(F)c1N1CCC(C(=O)N2CC(N3CCCC3)C2)CC1 [I-G-43, 2-amino-6-fluoro-N-(5-fluoro-4-(4-(3-(pyrrolidin-1-yl)azetidine-1-carbonyl)piperidin-1-yl)pyridin-3-yl)pyrazolo[1,5-a]pyrimidine-3-carboxamide] | +++ (Compounds with a Cisplatin sensitization value of <0.02 μM are marked with “+++.”) |
| Nc1nn2cc(F)cnc2c1C(=O)Nc1cnccc1N1CCC2(CC1)COC2 [I-N-226, N-(4-(2-oxa-7-azaspiro[3.5]nonan-7-yl)pyridin-3-yl)-2-amino-6-fluoropyrazolo[1,5-a]pyrimidine-3-carboxamide] | +++ (Compounds with a Cisplatin sensitization value of <0.02 μM are marked with “+++.”) |
| Nc1nn2cc(F)cnc2c1C(=O)Nc1cncc(F)c1N1CCC(C(=O)N2CCN3CCC2CC3)CC1 [I-G-7, N-(4-(4-(1,4-diazabicyclo[3.2.2]nonane-4-carbonyl)piperidin-1-yl)-5-fluoropyridin-3-yl)-2-amino-6-fluoropyrazolo[1,5-a]pyrimidine-3-carboxamide] | +++ (Compounds with a Cisplatin sensitization value of <0.02 μM are marked with “+++.”) |
| COc1cc(Cl)ncc1NC(=O)c1c(N)nn2cc(CC#N)cnc12 [I-O-27, 2-amino-N-(6-chloro-4-methoxypyridin-3-yl)-6-(cyanomethyl)pyrazolo[1,5-a]pyrimidine-3-carboxamide] | ++ (Compounds with a Cisplatin sensitization value >0.02 μM but <0.2 μM are marked with “++.”) |
| CN1C2CCC1CN(C(=O)C1CCN(c3c(F)cncc3NC(=O)c3c(N)nn4cc(F)cnc34)CC1)C2 [I-G-52, 2-amino-6-fluoro-N-(5-fluoro-4-(4-(8-methyl-3,8-diazabicyclo[3.2.1]octane-3-carbonyl)piperidin-1-yl)pyridin-3-yl)pyrazolo[1,5-a]pyrimidine-3-carboxamide] | +++ (Compounds with a Cisplatin sensitization value of <0.02 μM are marked with “+++.”) |
| N#CCc1cnc2c(C(=O)Nc3cnccc3OCC3CC3)c(N)nn2c1 [I-O-32, 2-amino-6-(cyanomethyl)-N-(4-(cyclopropylmethoxy)pyridin-3-yl)pyrazolo[1,5-a]pyrimidine-3-carboxamide] | +++ (Compounds with a Cisplatin sensitization value of <0.02 μM are marked with “+++.”) |
| Nc1nn2cc(Cl)cnc2c1C(=O)Nc1cnccc1OCCCO [I-O-53, 2-amino-6-chloro-N-(4-(3-hydroxypropoxy)pyridin-3-yl)pyrazolo[1,5-a]pyrimidine-3-carboxamide] | +++ (Compounds with a Cisplatin sensitization value of <0.02 μM are marked with “+++.”) |
| CN(C)[C@H]1CCN(c2ccncc2NC(=O)c2c(N)nn3cc(Cl)cnc23)C[C@@H]1O [I-N-35, 2-amino-6-chloro-N-(4-((3S,4S)-4-(dimethylamino)-3-hydroxypiperidin-1-yl)pyridin-3-yl)pyrazolo[1,5-a]pyrimidine-3-carboxamide] | + (Compounds with a Cisplatin sensitization value >0.2 μM but <5 μM are marked with “+.”) |
| CNCCCN(C)C(=O)C1CCN(c2c(F)cncc2NC(=O)c2c(N)nn3cc(F)cnc23)CC1 [I-G-17] | + (Compounds with a Cisplatin sensitization value >0.2 μM but <5 μM are marked with “+.”) |
| Nc1nn2cc(F)cnc2c1C(=O)Nc1cncc(F)c1N1CCN(C(=O)C2CNCCO2)CC1 (centres unmarked) [I-N-172, 2-amino-6-fluoro-N-(5-fluoro-4-(4-(morpholine-2-carbonyl)piperazin-1-yl)pyridin-3-yl)pyrazolo[1,5-a]pyrimidine-3-carboxamide] | +++ (Compounds with a Cisplatin sensitization value of <0.02 μM are marked with “+++.”) |
| Cc1cncc(NC(=O)c2c(N)nn3cc(F)cnc23)c1-n1nccc1C [I-N-237] | + (Compounds with a Cisplatin sensitization value >0.2 μM but <5 μM are marked with “+.”) |
| C[C@H]1CN(C(=O)C2CCN(c3c(F)cncc3NC(=O)c3c(N)nn4cc(F)cnc34)CC2)CCN1 [I-G-61, (S)-2-amino-6-fluoro-N-(5-fluoro-4-(4-(3-methylpiperazine-1-carbonyl)piperidin-1-yl)pyridin-3-yl)pyrazolo[1,5-a]pyrimidine-3-carboxamide] | +++ (Compounds with a Cisplatin sensitization value of <0.02 μM are marked with “+++.”) |
| Cc1nc(C(F)(F)F)cn1-c1ccncc1NC(=O)c1c(N)nn2cc(F)cnc12 [I-N-30, 2-amino-6-fluoro-N-(4-(2-methyl-4-(trifluoromethyl)-1H-imidazol-1-yl)pyridin-3-yl)pyrazolo[1,5-a]pyrimidine-3-carboxamide] | ++ (Compounds with a Cisplatin sensitization value >0.02 μM but <0.2 μM are marked with “++.”) |
| Nc1nn2cc(F)cnc2c1C(=O)Nc1cnccc1OC1CCN(C2COC2)CC1 [I-O-11, 2-amino-6-fluoro-N-(4-((1-(oxetan-3-yl)piperidin-4-yl)oxy)pyridin-3-yl)pyrazolo[1,5-a]pyrimidine-3-carboxamide] | +++ (Compounds with a Cisplatin sensitization value of <0.02 μM are marked with “+++.”) |
| CN1CCC[C@H]1COc1ccncc1NC(=O)c1c(N)nn2cc(Cl)cnc12 [I-O-50, (S)-2-amino-6-chloro-N-(4-((1-methylpyrrolidin-2-yl)methoxy)pyridin-3-yl)pyrazolo[1,5-a]pyrimidine-3-carboxamide] | + (Compounds with a Cisplatin sensitization value >0.2 μM but <5 μM are marked with “+.”) |
| CN1CCN2CCN(c3ccncc3NC(=O)c3c(N)nn4cc(F)cnc34)CC2C1=O (centres unmarked) [I-N-233, 2-amino-6-fluoro-N-(4-(8-methyl-9-oxohexahydro-1H-pyrazino[1,2-a]pyrazin-2(6H)-yl)pyridin-3-yl)pyrazolo[1,5-a]pyrimidine-3-carboxamide] | ++ (Compounds with a Cisplatin sensitization value >0.02 μM but <0.2 μM are marked with “++.”) |
| CN1CC(OC2CCN(c3ccncc3NC(=O)c3c(N)nn4cc(F)cnc34)CC2)C1 [I-N-164, 2-amino-6-fluoro-N-(4-(4-((1-methylazetidin-3-yl)oxy)piperidin-1-yl)pyridin-3-yl)pyrazolo[1,5-a]pyrimidine-3-carboxamide] | +++ (Compounds with a Cisplatin sensitization value of <0.02 μM are marked with “+++.”) |
| Nc1nn2cc(F)cnc2c1C(=O)Nc1cnccc1N1CCC(S(=O)(=O)N2CCOCC2)CC1 [I-N-170, 2-amino-6-fluoro-N-(4-(4-(morpholinosulfonyl)piperidin-1-yl)pyridin-3-yl)pyrazolo[1,5-a]pyrimidine-3-carboxamide] | +++ (Compounds with a Cisplatin sensitization value of <0.02 μM are marked with “+++.”) |
| Nc1nn2cc(F)cnc2c1C(=O)Nc1cnccc1N1CCN([C@H]2CCOC2)CC1 [I-N-12, (S)-2-amino-6-fluoro-N-(4-(4-(tetrahydrofuran-3-yl)piperazin-1-yl)pyridin-3-yl)pyrazolo[1,5-a]pyrimidine-3-carboxamide] | +++ (Compounds with a Cisplatin sensitization value of <0.02 μM are marked with “+++.”) |
| CN1CCC(c2ccncc2NC(=O)c2c(N)nn3cc(F)cnc23)CC1 [I-C-1, 2-amino-6-fluoro-N-(4-(1-methylpiperidin-4-yl)pyridin-3-yl)pyrazolo[1,5-a]pyrimidine-3-carboxamide] | ++ (Compounds with a Cisplatin sensitization value >0.02 μM but <0.2 μM are marked with “++.”) |

Source: patent publication US11117900B2 (Vertex Pharmaceuticals Incorporated, priority 2012, dated 2021)
